From patent publication US20140323504A1, “Pyrazolo[4,3-c]Pyridine Derivatives As Kinase Inhibitors” (Cellzome Limited, priority 2011, published 2014)
“And” between values parts separate entries of the source, which are not always exact repeats. Equal entries are not always repeated.

How the values were obtained:
JAK1 = biological target: T1, JAK1 (Homo sapiens, UniProt P23458); assay: Kinobeads assay with antibody detection, JAK1; type: binding; conditions: mixed Molt4/Ramos lysate, read-out: JAK1 inhibition value (IC50)
T1 construct: endogenous in cells; host or cells: mixed Molt4/Ramos cell lysate (1:2)
Procedure: (§1) The compounds of the present invention as described in the previous examples were tested in a Kinobeads™ assay as described for ZAP-70 (WO-A 2007/137867). Briefly, test compounds (at various concentrations) and the affinity matrix with the immobilized aminopyrido-pyrimidine ligand 24 were added to cell lysate aliquots and allowed to bind to the proteins in the lysate sample. After the incubation time the beads with captured proteins were separated from the lysate. Bound proteins were then eluted and the presence of JAK1; JAK2, JAK3 and TYK2 was detected and quantified using specific antibodies in a dot blot procedure and the Odyssey infrared detection system. Dose response curves for individual kinases were generated and IC50 values calculated. Kinobeads™ assays for ZAP-70 (WO-A 2007/137867) and for kinase selectivity profiling (WO-A 2006/134056) have been previously described.
(§2) 5×DP buffer: 250 mM Tris-HCl pH 7.4, 25% Glycerol, 7.5 mM MgCl2, 750 mM NaCl, 5 mM Na3VO4; filter the 5×DP buffer through a 0.22 μm filter and store in aliquot at −80° C. The 5×DP buffer is diluted with H2O to 1×DP buffer containing 1 mM DTT and 25 mM NaF.
(§3) Stock solutions of test compounds were prepared in DMSO. In a 96 well plate 30 μL solution of diluted test compounds at 5 mM in DMSO were prepared. Starting with this solution a 1:3 dilution series (9 steps) was prepared. For control experiments (no test compound) a buffer containing 2% DMSO was used.
(§4) Molt4 cells (ATCC catalogue number CRL-1582) and Ramos cells (ATCC catalogue number CRL-1596) were grown in 1 L Spinner flasks (Integra Biosciences, #182101) in suspension in RPMI 1640 medium (Invitrogen, #21875-034) supplemented with 10% Fetal Bovine Serum (Invitrogen) at a density between 0.15×10^6 and 1.2×10^6 cells/mL. Cells were harvested by centrifugation, washed once with 1×PBS buffer (Invitrogen, #14190-094) and cell pellets were frozen in liquid nitrogen and subsequently stored at −80° C. Cells were homogenized in a Potter S homogenizer in lysis buffer: 50 mM Tris-HCl, 0.8% NP40, 5% glycerol, 150 mM NaCl, 1.5 mM MgCl2, 25 mM NaF, 1 mM sodium vanadate, 1 mM DTT, pH 7.5. One complete EDTA-free tablet (protease inhibitor cocktail, Roche Diagnostics, 1873580) per 25 mL buffer was added. The material was dounced 10 times using a mechanized POTTER S, transferred to 50 mL falcon tubes, incubated for 30 minutes on ice and spun down for 10 minutes at 20,000 g at 4° C. (10,000 rpm in Sorvall SLA600, precooled). The supernatant was transferred to an ultracentrifuge (UZ)-polycarbonate tube (Beckmann, 355654) and spun for 1 hour at 100.000 g at 4° C. (33.500 rpm in Ti50.2, precooled). The supernatant was transferred again to a fresh 50 mL falcon tube, the protein concentration was determined by a Bradford assay (BioRad) and samples containing 50 mg of protein per aliquot were prepared. The samples were immediately used for experiments or frozen in liquid nitrogen and stored frozen at −80° C.
(§5) Cell lysate (approximately 50 mg protein per plate) was thawed in a water bath at room temperature and then stored on ice. To the thawed cell lysate 1×DP 0.8% NP40 buffer containing protease inhibitors (1 tablet for 25 mL buffer; EDTA-free protease inhibitor cocktail; Roche. Diagnostics 1873580) was added in order to reach a final protein concentration of 10 mg/mL total protein. The diluted cell lysate was stored on ice. Mixed Molt4Ramos lysate was prepared by combining one volume of Molt4 lysate and two volumes of Ramos lysate (ratio 1:2).
(§6) Plates were sealed and incubated for 3 hours in a cold room on a plate shaker (Heidolph tiramax 1000) at 750 rpm. Afterwards the plate was washed 3 times with 230 μL washing buffer (1×DP 0.4% NP40). The filter plate was placed on top of a collection plate (Greiner bio-one, PP-microplate 96 well V-shape, 65120) and the beads were then eluted with 20 μL of sample buffer (100 mM Tris, pH 7.4, 4% SDS, 0.00025% bromophenol blue, 20% glycerol, 50 mM DTT). […]

JAK2 = biological target: T2, JAK2 (Homo sapiens, UniProt O60674); assay: Kinobeads assay with antibody detection, JAK2; type: binding; conditions: mixed Molt4/Ramos lysate, read-out: JAK2 inhibition value (IC50)
T2 construct: endogenous in cells; host or cells: mixed Molt4/Ramos cell lysate (1:2)
Procedure: as §1, §2, §3, §4, §5, §6

Tyk2 = biological target: T3, Tyk2 (Homo sapiens, UniProt P29597); assay: Kinobeads assay with antibody detection, TYK2; type: binding; conditions: mixed Molt4/Ramos lysate, read-out: Tyk2 inhibition value (IC50)
T3 construct: endogenous in cells; host or cells: mixed Molt4/Ramos cell lysate (1:2)
Procedure: as §1, §2, §3, §4, §5, §6

JAK3 = biological target: T4, JAK3 (Homo sapiens, UniProt P52333); assay: Kinobeads assay with antibody detection, JAK3; type: binding; set-up: endogenous in cells; host or cells: mixed Molt4/Ramos cell lysate (1:2); conditions: mixed Molt4/Ramos lysate, read-out: JAK3 inhibition value (IC50)
T4 sequence (P52333 1-1124): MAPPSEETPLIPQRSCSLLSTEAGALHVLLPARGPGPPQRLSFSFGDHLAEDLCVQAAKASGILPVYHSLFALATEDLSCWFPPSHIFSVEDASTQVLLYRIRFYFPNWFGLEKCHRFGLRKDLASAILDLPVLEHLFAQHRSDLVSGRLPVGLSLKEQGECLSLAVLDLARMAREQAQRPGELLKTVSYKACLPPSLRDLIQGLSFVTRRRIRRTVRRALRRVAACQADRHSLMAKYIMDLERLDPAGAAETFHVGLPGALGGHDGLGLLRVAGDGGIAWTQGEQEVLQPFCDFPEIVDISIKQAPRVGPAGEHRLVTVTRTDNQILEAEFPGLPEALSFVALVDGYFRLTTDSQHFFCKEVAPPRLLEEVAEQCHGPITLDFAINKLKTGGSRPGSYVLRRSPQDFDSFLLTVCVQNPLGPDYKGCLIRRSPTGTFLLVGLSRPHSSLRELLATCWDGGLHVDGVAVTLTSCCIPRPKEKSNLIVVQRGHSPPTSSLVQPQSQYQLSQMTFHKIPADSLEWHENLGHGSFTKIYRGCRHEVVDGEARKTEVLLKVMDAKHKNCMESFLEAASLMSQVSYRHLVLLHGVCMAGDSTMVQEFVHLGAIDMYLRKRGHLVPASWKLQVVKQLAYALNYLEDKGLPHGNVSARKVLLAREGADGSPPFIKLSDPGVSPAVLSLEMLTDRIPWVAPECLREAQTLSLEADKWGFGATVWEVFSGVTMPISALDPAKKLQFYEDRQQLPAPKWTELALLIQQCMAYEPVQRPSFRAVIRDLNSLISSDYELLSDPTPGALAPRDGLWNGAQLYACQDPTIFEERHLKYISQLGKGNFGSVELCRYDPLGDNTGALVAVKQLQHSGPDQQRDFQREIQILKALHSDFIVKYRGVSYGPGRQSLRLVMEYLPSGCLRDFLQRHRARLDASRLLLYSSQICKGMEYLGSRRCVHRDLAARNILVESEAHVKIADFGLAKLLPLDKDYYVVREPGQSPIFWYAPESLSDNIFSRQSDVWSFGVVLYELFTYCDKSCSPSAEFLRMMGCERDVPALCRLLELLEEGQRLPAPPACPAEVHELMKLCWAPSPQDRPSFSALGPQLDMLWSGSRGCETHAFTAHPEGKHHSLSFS
Procedure: as §1, §2, §3, §4, §5, §6

[1] = test system: NOD mouse model of type I diabetes; conditions: cited from earlier work
GVHD = conditions: Cetkovic-Cvrlje and Ucken, 2004; cited from earlier work
[2] = test system: STAT5 phosphorylation in IL-2 stimulated YT cells; assay: Cell assay with washout of compounds (pSTAT5, YT cells, MSD); type: cell-based, human
Procedure: This time course experiment allows determination as to whether the pharmacological effect of the tested compounds persists over time even after the compound is removed from the cell samples.
Human YT cells were grown as described above. Cells were harvested by centrifugation and resuspended in RPMI0.5% heat-inactivated FBS. 3×10^5 cells were seeded in 60 μl per well in a round-bottomed 96 well plate (BD-Falcon, 353077).
Test compounds were dissolved in DMSO and a 1:3 dilution series (9 steps) was prepared. To generate a dose response curve, 30 μl of fourfold concentrated compound in 4% DMSO/RPMI/0.5% FBS were added to each cell sample in the 96 well plate resulting in a final DMSO concentration of 1% DMSO. Cells were incubated for one hour in a humidified incubator (37° C., 5% CO2). After incubation cells were washed twice by centrifugation and replacement of media (RPMI/0.5% FBS), with the exception of the time 0 plate. Washed cells were incubated for 30 min, 1, 2 and 4 hours in a humidified incubator (37° C., 5% CO2) prior to stimulation with IL-2. To each well 30 μl of a fourfold concentrated IL-2 solution (Recombinant human IL-2, Peprotech 200-02; 120 nM solution in RPMI) was added and incubated for 30 minutes at room temperature. Cells were lysed by adding 30 μl of 5× lysis buffer (MSD lysis buffer) and incubated for 10 minutes at 4° C. with gentle shaking.
The effect of compounds on STATS phosphorylation was determined in lysates using the MSD MULTI-SPOT® 96 4-spot phosphor-STAT5a,b whole cell lysatc kit (MesoScale Discovery, K150IGD-3) according to the manufacturer's protocol. Data were analysed in BioAssay using the nonlinear regression for a sigmoidal dose-response with a variable slope and IC50 values were determined.

[3] = test system: animal model of organ transplantation; conditions: Changelian et al., 2003; cited from earlier work
[4] = IL-2 stimulated YT cells, 0 min (no wash)

T3 sequence (P29597 whole entry): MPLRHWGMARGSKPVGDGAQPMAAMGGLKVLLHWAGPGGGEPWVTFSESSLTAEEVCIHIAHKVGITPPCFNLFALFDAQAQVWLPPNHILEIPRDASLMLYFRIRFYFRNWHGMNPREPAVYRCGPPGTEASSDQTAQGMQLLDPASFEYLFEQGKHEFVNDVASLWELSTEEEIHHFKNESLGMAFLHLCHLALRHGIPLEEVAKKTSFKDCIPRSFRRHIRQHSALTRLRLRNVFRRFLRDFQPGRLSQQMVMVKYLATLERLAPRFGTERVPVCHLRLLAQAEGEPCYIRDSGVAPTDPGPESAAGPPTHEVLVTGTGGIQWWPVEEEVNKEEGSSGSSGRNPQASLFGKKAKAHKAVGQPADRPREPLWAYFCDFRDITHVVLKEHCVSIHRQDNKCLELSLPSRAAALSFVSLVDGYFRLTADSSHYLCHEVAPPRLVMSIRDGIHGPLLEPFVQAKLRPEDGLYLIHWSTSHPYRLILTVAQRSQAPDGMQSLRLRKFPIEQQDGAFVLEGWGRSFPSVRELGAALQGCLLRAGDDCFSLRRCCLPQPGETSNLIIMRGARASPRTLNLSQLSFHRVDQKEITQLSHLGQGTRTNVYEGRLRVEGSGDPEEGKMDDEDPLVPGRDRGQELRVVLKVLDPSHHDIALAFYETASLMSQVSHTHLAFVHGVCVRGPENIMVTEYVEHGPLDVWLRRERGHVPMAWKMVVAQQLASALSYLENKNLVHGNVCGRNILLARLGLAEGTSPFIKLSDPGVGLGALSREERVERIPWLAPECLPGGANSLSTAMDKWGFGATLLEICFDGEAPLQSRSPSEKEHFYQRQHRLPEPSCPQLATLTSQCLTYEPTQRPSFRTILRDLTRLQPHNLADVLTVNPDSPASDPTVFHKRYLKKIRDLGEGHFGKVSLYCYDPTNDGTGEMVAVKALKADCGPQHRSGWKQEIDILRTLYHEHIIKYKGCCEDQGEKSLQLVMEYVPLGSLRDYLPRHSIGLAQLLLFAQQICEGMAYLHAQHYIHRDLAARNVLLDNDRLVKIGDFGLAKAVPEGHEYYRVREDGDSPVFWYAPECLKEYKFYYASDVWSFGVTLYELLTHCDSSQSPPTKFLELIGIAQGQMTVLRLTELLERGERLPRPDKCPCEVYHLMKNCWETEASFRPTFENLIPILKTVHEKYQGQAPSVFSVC
T2 sequence (O60674 whole entry): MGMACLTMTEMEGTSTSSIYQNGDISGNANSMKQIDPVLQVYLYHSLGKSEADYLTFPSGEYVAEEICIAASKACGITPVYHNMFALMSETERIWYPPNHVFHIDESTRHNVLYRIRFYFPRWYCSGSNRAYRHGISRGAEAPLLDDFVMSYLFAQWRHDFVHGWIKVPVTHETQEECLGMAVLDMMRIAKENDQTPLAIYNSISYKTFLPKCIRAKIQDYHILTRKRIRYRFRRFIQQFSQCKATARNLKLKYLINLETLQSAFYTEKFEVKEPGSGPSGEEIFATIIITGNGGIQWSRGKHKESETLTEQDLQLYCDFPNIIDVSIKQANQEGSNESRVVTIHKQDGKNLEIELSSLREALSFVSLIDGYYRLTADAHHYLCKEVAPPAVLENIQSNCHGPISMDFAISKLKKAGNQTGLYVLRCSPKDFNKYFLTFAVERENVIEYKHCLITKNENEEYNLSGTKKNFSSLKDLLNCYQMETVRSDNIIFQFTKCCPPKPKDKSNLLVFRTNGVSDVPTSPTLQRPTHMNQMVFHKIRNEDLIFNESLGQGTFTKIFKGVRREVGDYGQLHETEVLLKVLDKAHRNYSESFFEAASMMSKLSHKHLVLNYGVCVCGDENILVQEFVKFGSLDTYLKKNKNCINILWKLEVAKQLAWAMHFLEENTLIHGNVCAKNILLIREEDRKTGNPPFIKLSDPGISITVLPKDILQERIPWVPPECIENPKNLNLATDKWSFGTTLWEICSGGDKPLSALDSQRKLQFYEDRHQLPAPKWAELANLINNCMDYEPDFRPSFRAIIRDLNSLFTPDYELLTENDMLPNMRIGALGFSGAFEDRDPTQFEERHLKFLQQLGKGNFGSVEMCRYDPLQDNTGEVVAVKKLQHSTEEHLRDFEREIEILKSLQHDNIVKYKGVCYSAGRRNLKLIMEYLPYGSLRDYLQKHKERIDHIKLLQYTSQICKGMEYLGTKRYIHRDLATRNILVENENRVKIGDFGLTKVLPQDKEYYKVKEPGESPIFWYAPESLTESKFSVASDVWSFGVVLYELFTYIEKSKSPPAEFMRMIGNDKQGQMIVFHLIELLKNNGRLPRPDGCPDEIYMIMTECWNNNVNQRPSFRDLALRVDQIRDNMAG
T1 sequence (P23458 whole entry): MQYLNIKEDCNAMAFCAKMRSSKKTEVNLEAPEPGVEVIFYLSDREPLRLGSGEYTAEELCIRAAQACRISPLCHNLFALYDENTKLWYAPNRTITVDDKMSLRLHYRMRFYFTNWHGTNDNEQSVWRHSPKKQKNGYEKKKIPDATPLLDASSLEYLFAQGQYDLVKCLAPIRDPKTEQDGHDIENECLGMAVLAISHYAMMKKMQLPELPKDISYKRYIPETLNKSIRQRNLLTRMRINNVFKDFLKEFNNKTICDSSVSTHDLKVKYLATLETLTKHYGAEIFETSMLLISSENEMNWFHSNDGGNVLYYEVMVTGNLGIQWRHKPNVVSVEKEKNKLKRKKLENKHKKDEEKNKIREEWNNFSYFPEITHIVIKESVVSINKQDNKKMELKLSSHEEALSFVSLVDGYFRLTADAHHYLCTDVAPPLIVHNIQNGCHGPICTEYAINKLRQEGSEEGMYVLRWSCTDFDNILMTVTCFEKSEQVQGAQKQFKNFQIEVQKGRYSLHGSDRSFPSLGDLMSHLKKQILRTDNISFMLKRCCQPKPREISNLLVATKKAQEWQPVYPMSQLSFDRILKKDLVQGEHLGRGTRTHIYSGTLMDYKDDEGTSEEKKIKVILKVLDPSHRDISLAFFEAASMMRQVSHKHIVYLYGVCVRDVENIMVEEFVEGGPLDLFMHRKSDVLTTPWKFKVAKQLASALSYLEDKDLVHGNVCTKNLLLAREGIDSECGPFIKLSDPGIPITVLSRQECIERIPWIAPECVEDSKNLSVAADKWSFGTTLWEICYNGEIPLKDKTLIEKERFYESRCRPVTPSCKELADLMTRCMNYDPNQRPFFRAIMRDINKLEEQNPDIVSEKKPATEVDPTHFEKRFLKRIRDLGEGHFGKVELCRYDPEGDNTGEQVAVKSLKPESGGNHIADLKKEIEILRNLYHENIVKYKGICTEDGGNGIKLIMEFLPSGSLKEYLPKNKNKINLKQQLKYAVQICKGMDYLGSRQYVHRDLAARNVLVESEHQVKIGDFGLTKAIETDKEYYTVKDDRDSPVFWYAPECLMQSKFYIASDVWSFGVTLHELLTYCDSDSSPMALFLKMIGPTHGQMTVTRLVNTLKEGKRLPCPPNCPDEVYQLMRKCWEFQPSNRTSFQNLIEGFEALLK

| SMILES | IC50 (JAK1) [µM] | IC50 (JAK2) [µM] | IC50 (Tyk2) [µM] | IC50 (JAK3) [µM] | also measured |
| --- | --- | --- | --- | --- | --- |
| CC(C)=CC(=O)Nc1cccc(Cn2ncc3cnc(Nc4cnn(C)c4)nc32)c1 [Example 6, 3-Methyl-N-(3-((6-((1-methyl-1H-pyrazol-4-yl)amino)-1H-pyrazolo[3,4-d]pyrimidin-1-yl)methyl)phenyl)but-2-enamide] | > 10 | > 10 | > 10 | 1.31 | – |
| C=CC(=O)Nc1cccc(Cn2ncc3cnc(Nc4ccn(C)n4)cc32)c1 [Example 8, N-(3-((6-((1-Methyl-1H-pyrazol-3-yl)amino)-1H-pyrazolo[4,3-c]pyridin-1-yl)methyl)phenyl)acrylamide] | > 10 | > 10 | > 10 | 0.005 | – |
| C=CC(=O)Nc1cccc(Cn2ccc3cnc(Nc4cnn(C)c4)nc32)c1 [Example 9, N-(3-((2-((1-Methyl-1H-pyrazol-4-yl)amino)-7H-pyrrolo[2,3-d]pyrimidin-7-yl)methyl)phenyl)acrylamide] | 9.42 | > 10 | 8.08 | 0.003 | – |
| C=CC(=O)Nc1cccc(Cn2ncc3cnc(Nc4cnn(C)c4)cc32)c1 [Example 10, N-(3-((6-((1-Methyl-1H-pyrazol-4-yl)amino)-1H-pyrazolo[4,3-c]pyridin-1-yl)methyl)phenyl)acrylamide] | 5.37 | > 10 | 5.08 | 0.001 | – |
| COc1cc2ncnc(Nc3ccc(O)cc3)c2cc1OC [JANEX-1] | – | – | – | – | spontaneous autoimmune diabetes development [1]: prevent spontaneous autoimmune diabetes development; severity of GVHD (GVHD): attenuate the severity of GVHD |
| Cn1cc(Nc2ncc3cnn(Cc4cccc(NC5COC5)c4)c3n2)cn1 [Reference example 1, N-(1-methyl-1H-pyrazol-4-yl)-1-(3-(oxetan-3-ylamino)benzyl)-1H-pyrazolo[3,4-d]pyrimidin-6-amine] | – | – | – | – | IC50 ([2]; Homo sapiens, 0 h, IL-2 stimulated YT cells, 0 min (no wash), read-out: pSTAT5 inhibition pIC50, 0 min (no wash) (converted)): 1.58 µM; pSTAT5 inhibition pIC50, 0 min (no wash) [2, 4]: 5.7; pSTAT5 inhibition pIC50, 30 min after washout ([2]; IL-2 stimulated YT cells): inactive; pSTAT5 inhibition pIC50, 1 hour after washout ([2]; IL-2 stimulated YT cells): inactive; pSTAT5 inhibition pIC50, 2 hours after washout ([2]; IL-2 stimulated YT cells): inactive; pSTAT5 inhibition pIC50, 4 hours after washout ([2]; IL-2 stimulated YT cells): inactive |
| C[C@@H]1CCN(C(=O)CC#N)C[C@@H]1N(C)c1ncnc2[nH]ccc12 [Reference example 3, CP 690,550] | – | – | – | – | pSTAT5 inhibition pIC50, 0 min (no wash) [2, 4]: 7.6 and 7.8; pSTAT5 inhibition pIC50, 30 min after washout ([2]; IL-2 stimulated YT cells): 5.1; pSTAT5 inhibition pIC50, 1 hour after washout ([2]; IL-2 stimulated YT cells): inactive; pSTAT5 inhibition pIC50, 2 hours after washout ([2]; IL-2 stimulated YT cells): inactive; pSTAT5 inhibition pIC50, 4 hours after washout ([2]; IL-2 stimulated YT cells): Inactive; activity 30 minutes after the washing of cells ([2]; YT cells, 30 minutes after washing): significant drop in activity; inhibition activity 1 hour after washing ([2]; YT cells, 1 hour after washing): completely lost; efficacy in organ transplantation model [3]: show efficacy in an animal model of organ transplantation |
